Experimental data taken from US20120121720A1, “Modulation of Beta 2 Adrenergic Receptors by Inhibitors of EGLN3 or pVHL” (priority 2009, published 2012).

Legend:
impaired sense of smell = test: Patient case example: impaired sense of smell; assay type: in vivo, human; settings: Example XXIII; after steroidal nasal spray; DMOG nasal spray 1 mg/ml
Method: DMOG is administered via nasal spray in amount 1 mg/ml. Patient sense of smell improves.

hypertension = test: Patient case examples: hypertension; assay type: in vivo, human; settings: for Blood pressure: baseline 180/95 on hydralazine hydrochloride
Method: A person with hypertension and not responding to hydralazine hydrochloride (i.e., blood pressure 180/95). […] Patient is begun on DMOG at a dose of 30 mg/kg twice per day. Patient improves (i.e., blood pressure 160/90).
They are started on DMOG at a dose of 30 mg/kg twice per day. Patient improves. No limiting hypertension is noted.
A person with hypertension is not responding to hydralazine hydrochloride (i.e., blood pressure 180/95). […] Patient is begun on DMOG at a dose of 30 mg/kg twice per day. Patient improves (i.e., blood pressure 160/90).

muscle wasting = test: Patient case examples: lymphoma and muscle wasting, six minute walk test; assay type: in vivo, human
Method: A person with lymphoma and muscle wasting. Patient is started on carvedilol at 12.5 BID and isosorbide dinitrate at 10 mg POTID. Patient is started on an intravenous formulation of DMOG at a concentration of […]. Patient's strength improves as evidenced by a six minute walk test.
A person with lymphoma and muscle wasting. Patient is started on alprenolol and isosorbide dinitrate. Patient is started on an intravenous formulation of DMOG at a concentration of 20.0 mg/mL. Patient's strength improves as evidenced by a six minute walk test.

unstable angina = test: Patient case examples: unstable angina with nitroglycerin tolerance; assay type: in vivo, human; settings: IV nitroglycerin tolerance over 48 hours
Method: A person with unstable angina on IV nitroglycerin develops tolerance over 48 hours as evidenced by recurrent chest pains despite increasing doses of drug.
A person with unstable angina on IV nitroglycerin develops tolerance over 48 hours as evidenced by recurrent chest pains despite increasing doses of drug. […] The patient improves.

pulmonary edema = test: Patient case examples: pulmonary edema; assay type: in vivo, human; settings: over the day
Method: A person presents complaining of shortness of breath. […] An intravenous line is inserted and the patient is started on IV infusion of […] per kilogram per minute nitroglycerin. They are also given an intravenous formulation of DMOG at a concentration of 10.0 mg/ml. Their symptoms improve over the day, during which time their arteriolar PO2 increases from 70 to 85 mm Hg.
A person presents complaining of shortness of breath. […] The patient is started on intravenous nitroglycerin at 25 μg per minute and DMOG at a dose of 25 mg/kg three times per day. Their symptoms improve over the day, during which time their arteriolar PO2 increases from 60 to 85 mm Hg.

[1] = tested on: Chronic Obstructive Pulmonary Disease; test: Patient case examples: Chronic Obstructive Pulmonary Disease; assay type: in vivo, human
Method: Patient started on DMOG at a dose of 50 mg/kg three times per day. Patient improves as evidenced by improved spirometry. A patient having Chronic Obstructive Pulmonary Disease, receiving supplemental oxygen and treated with salbutamol and prednisone is started on DMOG at a dose of 20 mg/kg three times per day.

heart failure = test: Patient case examples: heart failure (ejection fraction, dyspnea); assay type: in vivo, human; settings: for Ejection fraction / Ejection fraction response: baseline 25%; for Ejection fraction: within one month
Method: The patient is started on nitroglycerin patch (Nitro-bid), 2 inches, twice a day and DMOG at a dose of 100 mg/kg once per day. Ejection fraction improves to 40% within one month.
The patient is started on nitroglycerin patch (Nitro-bid), 2 inches, twice a day and DMOG at a dose of 25 mg/kg three times per day. Ejection fraction improves to 42% within one month.
The patient is started on intravenous nitroglycerin at 20 μg per minute and DMOG at a dose of 50 mg/kg three times per day. Ejection fraction improves to 42% within one month.
A person with heart failure remains short of breath despite increasing doses of nitroglycerin.

asthma = test: Patient case examples: asthma; assay type: in vivo, human
Method: A person with asthma, wherein symptoms are not improving despite receiving treatment with 250 ug beclomethasone taken in combination with an inhaler containing albuterol (when needed) is begun on DMOG at a dose of 20 mg/kg three times per day. Patient's asthma improves.
A person with asthma exacerbated by treatment with budesonide and formoterol at a dose per actuation of 160 and 4.5 mcg, respectively. Patient is begun on DMOG at a dose of 100 mg/kg once per day. Patient's asthma improves. EXAMPLE HI
A person with asthma exacerbated by treatment with fluticasone and salmeterol. Patient is begun on DMOG at a dose of 30 mg/kg twice per day. Patient's asthma improves.
A person with asthma exacerbated wherein symptoms are not improving despite receiving treatment with albuterol. Patient is begun on DMOG at a dose of 25 mg/kg three times per day. Patient's asthma improves.
A person with asthma exacerbated by treatment with budesonide and formoterol at a dose per actuation of 150.0 and 5.0 mcg, respectively. Patient is begun on malonic acid compound at a dose of 120 mg/kg once per day. Patient's asthma improves.

sickle cell disease = test: Patient case example: sickle cell disease crisis; assay type: in vivo, human; settings: Example XX; two units of blood, 80 ppm inhaled ethyl nitrite and 100 mg/kg DMOG
Method: A person with homozygous sickle cell disease presents in crisis. The patient complains of severe abdominal and chest pain and is somewhat disoriented. They receive two units of blood while being administered 80 ppm inhaled ethyl nitrite and 100 mg/kg of DMOG.

cystic fibrosis = test: Patient case examples: cystic fibrosis; assay type: in vivo, human
Method: A person with cystic fibrosis presents with hypoxemia and pulmonary hemorrhage. They are begun on ethyl nitrite 20 parts per million in nitrogen, N-acetylcysteine 50 mg/kg Q 6 hours and ascorbate IV 1 gram Q 6 hours, along with DMOG at a dose of 40 mg/kg three times per day. […] They are discharged on day 7. A person with cystic fibrosis presents with labored breathing and increased sputum production.

[2] = target: EGLN3 binding to the β2AR (Homo sapiens, UniProt P07550)
[3] = tested on: disorders of EXAMPLES I-XXIV; settings: Examples I-XXIV repeated; peptide 10-100 mg orally once-, twice- or three times-daily

## COC(=O)CNC(=O)C(=O)OC [DMOG, dimethyloxalylglycine]
Impaired sense of smell
  Sense of smell: improves
hypertension; Example X, propranolol, DMOG 30 mg/kg twice per day
  Blood pressure: 160/90
hypertension; Example XI, person after nitropaste, DMOG 30 mg/kg twice per day
  Hypertension response: improves
hypertension; Example XIII, metoprolol, DMOG 30 mg/kg twice per day
  Blood pressure: 160/90
Muscle wasting; Example IX, on alprenolol and isosorbide dinitrate, intravenous DMOG formulation 20.0 mg/mL
  Patient's strength, six minute walk test: improves
Muscle wasting; Example VIII, on carvedilol 12.5 BID and isosorbide dinitrate 10 mg, intravenous DMOG formulation 25.0 mg/m
  Patient's strength, six minute walk test: improves
Unstable angina; Example XII, intravenous DMOG formulation 15.0 mg/mL
  Response to nitroglycerin after tolerance: responds to nitroglycerin
Unstable angina; Example XIV, intravenous DMOG formulation 10.0 mg/ml
  Patient outcome, unstable angina: improves
Pulmonary edema; Example XXI, IV nitroglycerin 0.1 mg per kilogram per minute + intravenous DMOG formulation 10.0 mg/ml
  Symptoms of pulmonary edema: improve
Pulmonary edema; Example XXI, from 70, IV nitroglycerin 0.1 mg per kilogram per minute + intravenous DMOG formulation 10.0 mg/ml
  Arteriolar PO2: 85 mm Hg
Pulmonary edema; Example XXII, from 60, intravenous nitroglycerin 25 μg per minute + DMOG 25 mg/kg three times per day
  Arteriolar PO2: 85 mm Hg
Pulmonary edema; Example XXII, intravenous nitroglycerin 25 μg per minute + DMOG 25 mg/kg three times per day
  Symptoms of pulmonary edema: improve
[1]; Example XV, after albuterol, DMOG 50 mg/kg three times per day
  Patient outcome, spirometry: improves
[1]; Example XVI, on supplemental oxygen, salbutamol and prednisone, DMOG 20 mg/kg three times per day
  Need for supplemental oxygen: no longer requires supplemental oxygen
Heart failure; Example V, on carvedilol, nitroglycerin patch 2 inches twice a day + DMOG 100 mg/kg once per day
  Ejection fraction: 40%
Heart failure; Example VI, on carvedilol 50 mg BID, nitroglycerin patch 2 inches twice a day + DMOG 25 mg/kg three times per day
  Ejection fraction: 42%
Heart failure; Example VII, on carvedilol 25 mg divided BID, intravenous nitroglycerin 20 μg per minute + DMOG 50 mg/kg three times per day
  Ejection fraction: 42%
asthma; Example I, person not improving on 250 ug beclomethasone + albuterol inhaler, DMOG 20 mg/kg three times per day
  Patient's asthma: improves
asthma; Example II, person on budesonide/formoterol 160/4.5 mcg, DMOG 100 mg/kg once per day
  Patient's asthma: improves
asthma; Example III, person on fluticasone and salmeterol, DMOG 30 mg/kg twice per day
  Patient's asthma: improves
asthma; Example IV, person not improving on albuterol, DMOG 25 mg/kg three times per day
  Patient's asthma: improves
Sickle cell disease
  Symptoms of sickle cell crisis: All symptoms resolve
Cystic fibrosis; Example XIX, after HNO 10 ppm, DMOG 20 mg/kg three times per day, over two days
  Sputum production: decreases in sputum production
Cystic fibrosis; Example XVIII, ethyl nitrite 20 ppm, N-acetylcysteine 50 mg/kg Q 6 hours, ascorbate IV 1 gram Q 6 hours + DMOG 40 mg/kg three times per day, over three days
  Pulmonary hemorrhage and state of health: the hemorrhage stops and the patient reverts to normal state of health

## N=O [HNO]
Cystic fibrosis; Example XIX, HNO 10 ppm in nitrogen
  Symptomatic status: improvements in their symptomatic status

## N[C@@H](CCC(=O)N[C@@H](CSN=O)C(=O)NCC(=O)O)C(=O)O [S-nitrosoglutathione]
Heart failure; Example XVII, short of breath despite nitroglycerin, S-nitrosoglutathione 0.1 μg/kg/min
  Dyspnea and angina: improvement of dyspnea and relief of angina

## CC(C)(C)NCC(O)c1ccc(O)c(CO)c1 (stereo not drawn) [albuterol]
[1]; Example XV, albuterol before DMOG
  Patient outcome, COPD: no improvement

## COc1ccccc1OCCNCC(O)COc1cccc2[nH]c3ccccc3c12 (stereo not drawn) [carvedilol]
Heart failure; Example V, carvedilol before DMOG
  Ejection fraction response: without ejection fraction improving
Heart failure; Example VI, carvedilol 50 mg BID before DMOG
  Ejection fraction response: without ejection fraction improving
Heart failure; Example VII, carvedilol 25 mg divided BID before DMOG
  Ejection fraction response: without ejection fraction improving

## O=C(O)CC(=O)O [malonic acid compound, malonic acid]
asthma; Example XXIV, on budesonide/formoterol 150.0/5.0 mcg, malonic acid compound 120 mg/kg once per day
  Patient's asthma: improves

## COCCc1ccc(OCC(O)CNC(C)C)cc1 (stereo not drawn) [metoprolol]
hypertension; Example XIII, metoprolol before DMOG, blood pressure 180/95
  Hypertension response: without improvement

## CC(C)NCC(O)COc1cccc2ccccc12 (stereo not drawn) [propranolol]
hypertension; Example X, propranolol before DMOG, blood pressure 180/95
  Hypertension response: without improvement

## EAISFLLSLIDRLVLY
β2AR
  Receptor expression in cells: increases receptor expression
[2]
  Binding of EGLN3 to the β2AR: inhibits binding
[3]
  Patient outcome in each EXAMPLE: exhibits improvement
